Structures are written as SMILES.

The results in this text go back to BindingDB's records for doi:10.1016/j.bmcl.2004.10.085 (Bristol-Myers Squibb Pharmaceutical Research Institute, 2004).

For the experiment, the target named is T1, Androgen receptor (Homo sapiens, UniProt P10275).
T1 sequence (P10275 whole entry): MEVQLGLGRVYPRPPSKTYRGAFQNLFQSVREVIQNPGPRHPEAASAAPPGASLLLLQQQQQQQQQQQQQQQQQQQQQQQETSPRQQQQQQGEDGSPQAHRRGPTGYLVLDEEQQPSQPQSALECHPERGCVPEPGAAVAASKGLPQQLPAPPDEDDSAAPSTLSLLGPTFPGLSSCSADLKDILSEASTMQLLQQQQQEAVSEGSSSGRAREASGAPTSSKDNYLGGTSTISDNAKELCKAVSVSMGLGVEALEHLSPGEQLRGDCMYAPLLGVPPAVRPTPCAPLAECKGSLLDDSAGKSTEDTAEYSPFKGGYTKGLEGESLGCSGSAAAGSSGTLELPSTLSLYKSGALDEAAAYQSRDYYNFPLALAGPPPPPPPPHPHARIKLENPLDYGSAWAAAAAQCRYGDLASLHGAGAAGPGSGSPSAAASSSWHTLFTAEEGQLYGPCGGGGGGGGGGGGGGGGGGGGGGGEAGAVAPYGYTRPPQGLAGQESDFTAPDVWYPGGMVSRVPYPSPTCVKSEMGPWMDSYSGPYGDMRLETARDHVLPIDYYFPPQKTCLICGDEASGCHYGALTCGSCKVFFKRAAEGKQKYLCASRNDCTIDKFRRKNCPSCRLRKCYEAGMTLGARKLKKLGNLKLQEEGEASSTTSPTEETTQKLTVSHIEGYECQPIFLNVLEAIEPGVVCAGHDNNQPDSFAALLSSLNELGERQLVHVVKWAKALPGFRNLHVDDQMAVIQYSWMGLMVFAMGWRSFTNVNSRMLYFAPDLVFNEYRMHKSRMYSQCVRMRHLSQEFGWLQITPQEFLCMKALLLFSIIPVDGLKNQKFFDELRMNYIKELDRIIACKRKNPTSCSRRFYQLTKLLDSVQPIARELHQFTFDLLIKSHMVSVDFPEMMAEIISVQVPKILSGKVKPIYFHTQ
In words: Inhibition of androgen dependent human prostate cancer cell […] proliferation.
Usually IC50 stands for the point on the concentration scale where inhibition reaches its midpoint. A lower IC50 goes with greater potency. For `CN1C(=O)C2C=CC1c1c2c(O)n(-c2ccc([N+](=O)[O-])c3ccccc23)c1O` [(2R,6R)-8-Methyl-4-(4-nitro-naphthalen-1-yl)-4,8-diaza-tricyclo[5.2.2.0*2,6*]undec-10-ene-3,5,9-trione], the IC50 was 8460 nM. This lies in the single-digit micromolar range. `Oc1c2c(c(O)n1-c1ccc(Cl)c(Cl)c1)C1C=CC2C1` [(2R,6S)-4-(3,4-Dichloro-phenyl)-4-aza-tricyclo[5.2.1.0*2,6*]dec-8-ene-3,5-dione] showed an IC50 of 180 nM. This IC50 is about 47-fold lower than that of the compound before. As for `Oc1c2c(c(O)n1-c1cccc(C(F)(F)F)c1)C1C=CC2CC1` [(2R,6S)-4-(3-Trifluoromethyl-phenyl)-4-aza-tricyclo[5.2.2.0*2,6*]undec-8-ene-3,5-dione], inhibition was half-maximal at 0.4 nM (IC50). In the case of `Oc1c2c(c(O)n1-c1cccc(C(F)(F)F)c1)C1C=CC2[C@H]2C[C@@H]12` [(2R,6S,8S,10R)-4-[3-(trifluoromethyl)phenyl]-4-azatetracyclo[5.3.2.0^{2,6}.0^{8,10}]dodec-11-ene-3,5-dione], 148 nM corresponded to half-maximal inhibition (IC50). `Oc1c2c(c(O)n1-c1cccc(C(F)(F)F)c1)C1CCCC2CC1` [(2S,6R)-4-(3-Trifluoromethyl-phenyl)-4-aza-tricyclo[5.3.2.0*2,6*]dodecane-3,5-dione] had an IC50 of 179 nM.
